Consider two compounds from US8986737B2, “Antibiotic microspheres for treatment and prevention of osteomyelitis and enhancement of bone regrowth” (Wm. Marsh Rice University, priority 2002, dated 2015).

The test system of the assay is S. aureus UAMS-1 (ATCC 49230). In words: MIC and MBC determination by standard dilution methods. Format: cell-based, Staphylococcus aureus. How it is done:
The strain of S. aureus used in this study, UAMS-1, was isolated from a patient with osteomyelitis and deposited at the American Type Culture Collection as strain ATCC 49230. The bacteria were prepared from overnight cultures grown in tryptic soy broth at 37° C. with aeration. Cells were harvested by centrifugation, washed with sterile physiological saline, and resuspended to a final concentration of 2×10^8 CFU/ml (OD of 60% transmittance). Cell suspensions were prepared on the day of surgery and held on ice until implanted.
Minimum inhibitory concentration (MIC) and minimum bactericidal concentration (MBC) for the two antibiotics tested, tobramycin and cefazolin, were determined by standard dilution methods published by the National Committee for Clinical Laboratory Standards. Briefly, S. aureus cells were grown and diluted to 0.5 McFarland turbidity standard, approximately 2×10^8 cells/ml. The cells were mixed with either of the two antibiotics tested, at concentrations ranging from 2 μg/ml to 64 μg/ml. The following day, the cultures were examined for turbidity to allow determination of MIC values. After this, sample clear cultures were plated to determine the MBC, and colonies counts were done the next day.
Minimum inhibitory concentration and minimum bactericidal concentration for tobramycin was determined as previously described above, by standard dilution methods published by the National Committee for Clinical Laboratory Standards.

[1] abbreviates: Staphylococcus aureus, ATCC49230, read-out: MBC.
The mark [2] stands for this setting: Staphylococcus aureus, ATCC49230, read-out: MIC.

Converted amounts (≈) assume the structure as drawn. Read-outs that look alike come from different tables or passages of the source.

In turn, `NC[C@H]1O[C@H](O[C@H]2[C@H](O)[C@@H](O[C@H]3O[C@H](CO)[C@@H](O)[C@H](N)[C@H]3O)[C@H](N)C[C@@H]2N)[C@H](N)C[C@@H]1O` [Tobramycin] returned an MBC of 16 µg/mL (≈ 34.2 µM) and an MIC of 4 to 8 µg/mL. The MBC under setting [1] came to 16 µg/mL (≈ 34.2 µM). Moreover, the MIC under setting [2] was in the range of 4 to 8 µg/mL (≈ 8.56 to 17.1 µM).
For the compound `Cc1nnc(SCC2=C(C(=O)O)N3C(=O)[C@@H](NC(=O)Cn4cnnn4)[C@H]3SC2)s1` [Cefazolin], the MBC under setting [1] was 32 µg/mL (≈ 70.4 µM). The MIC under setting [2] was 2 µg/mL (≈ 4.4 µM).

For orientation: MBC means the lowest tested concentration that kills the bacteria rather than only halting them. In general, MIC refers to the lowest concentration found to suppress growth.
